Results taken from US4146631A, “Benzamide derivatives” (May & Baker Limited, priority 1976, dated 1979).

Experiments:
[1] = tested on: passive cutaneous anaphylactic (PCA) reaction; assay: Passive cutaneous anaphylactic (PCA) reaction, reagin-allergen combination, in rats; type: in vivo; settings: Rattus norvegicus; for ED100: intravenous, just before injection of allergen, read-out: ED100 (intravenous dose which produces 100% inhibition of the PCA reaction); for inhibition in vivo at 100 mg/kg: oral dose of 100 mg/kg; for inhibition in vivo at 100 mg/kg / ED50: thirty minutes before intravenous allergen; for ED50: oral, read-out: ED50 (oral dose which produces 50% inhibition of the PCA reaction)
Description: In pharmacological tests the benzamide derivatives of general formula I suppress the passive cutaneous anaphylactic (PCA) reaction resulting from combination of tissue-fixed reaginic antibodies with the appropriate antigenic material (termed reagin-allergen combination) and carried out in an essentially similar manner to that described by Ogilvie [Nature (Lond.), (1964), 204, 91-92; Immunology, (1967), 12, 112-131]. In the method used to test these compounds sera were obtained from rats which had been infected with larvae of the nematode parasite Nippostrongylus brasiliensis; as a result of the parasitic infestation reaginic antibodies are elaborated in the host mammal and are found in sera removed from such animals. Other, non-infected, rats received intradermal injections of appropriate dilutions of such sera and were then given the allergenic material along with Evans' blue dye intravenously forty-eight hours later.
The allergenic material consisted of supernatant fluid after centrifugation of homogenates of adult Nippostrongylus brasiliensis worms which had been macerated in Tyrode's solution. The sites of PCA reactions were visualised by the effusion of Evan's blue dye from the circulation into those areas as a result of increased capillary permeability caused by the release of biologically-active substances from cells where reagin-allergen combination had occurred. The new compounds when given intravenously to the rats just before injection of allergen, or administered orally thirty minutes before intravenous injection of allergen, were able to prevent the development of the PCA reaction, as shown below in Table I, Table II and Table III.

[2] = Acute oral toxicity in mice; settings: mouse, in vivo, highest dose used 1000 mg/kg, read-out: LD50 (doses lethal to 50% of mice tested)
Description: Mice were each treated orally with one of the compounds of formula I, and they were observed daily until there had been at least 3 consecutive days without any deaths. The LD50 figures obtained (doses lethal to 50% of mice tested) are shown below in Table IV, expressed in mg/kg animal body weight.
The symbol ">" means "greater than" in this specification. Where the LD50 is said to be ">1000," a more precise estimation of the LD50 was not possible because the numbers of deaths was too small, even at the highest dose used, 1000 mg/kg.

[3] = Acute intravenous toxicity in mice; settings: mouse, in vivo
Description: Mice were each treated intravenously with an aqueous solution of the triethanolamine salt or sodium salt of one of the compounds of formula I, and they were observed until there had been at least 3 consecutive days without any deaths. The LD50 figures obtained (doses lethal to 50% of mice tested) are shown below in Table V, expressed in mg/kg animal body weight. In Table V, "Na" means that the sodium salt was used and "T" means that the triethanolamine salt was used.
The aqueous solutions were prepared as follows:
A mixture of the test compound and water was treated gradually with triethanolamine until complete solution occurred. The solution was then diluted with water to a concentration of test compound of either 1% w/v or 2% w/v.
The test compound was dissolved in aqueous sodium hydroxide (1N) and the solution was brought to pH 8 by treatment with hydrochloric acid. The solution was then diluted with water to a concentration of test compound of 2% w/v.
Various volumes of these solutions were then administered to the mice.

[4] = triethanolamine salt (T), 2% w/v test solution
[5] = sodium salt (Na), 2% w/v test solution

O=C(Nc1nnn[nH]1)c1cccc([N+](=O)[O-])c1O [AI, 2-hydroxy-3-nitro-N-(tetrazol-5-yl)benzamide]
ED100 [1]: 0.5 mg/kg
inhibition in vivo at 100 mg/kg [1]: 68%
ED50 [1]: 5 to 30 mg/kg
LD50 [2]: > 1000 mg/kg
LD50 [3, 4]: > 1000 mg/kg

O=C(Nc1nnn[nH]1)c1cc([N+](=O)[O-])ccc1O [AO, 2-hydroxy-5-nitro-N-(tetrazol-5-yl)benzamide]
ED100 [1]: 0.2 mg/kg
inhibition in vivo at 100 mg/kg [1]: 48%
ED50 [1]: 100 mg/kg
LD50 [2]: > 1000 mg/kg
LD50 [3, 4]: 870 mg/kg

COc1ccc(O)c(C(=O)Nc2nnn[nH]2)c1 [AP, 2-hydroxy-5-methoxy-N-(tetrazol-5-yl)benzamide]
ED100 [1]: 0.5 mg/kg
inhibition in vivo at 100 mg/kg [1]: 75%
ED50 [1]: 100 mg/kg
LD50 [2]: > 1000 mg/kg
LD50 [3, 5]: 950 mg/kg

CC(=O)c1cc(C)cc(C(=O)Nc2nnn[nH]2)c1O [AR, 3-acetyl-2-hydroxy-5-methyl-N-(tetrazol-5-yl)benzamide]
ED100 [1]: 0.1 mg/kg
inhibition in vivo at 100 mg/kg [1]: 42%
ED50 [1]: 0.75 mg/kg
LD50 [2]: > 1000 mg/kg
LD50 [3, 4]: 430 mg/kg

CCOc1cccc(C(=O)Nc2nnn[nH]2)c1O [AS, 3-ethoxy-2-hydroxy-N-(tetrazol-5-yl)benzamide]
ED100 [1]: 1 mg/kg
inhibition in vivo at 100 mg/kg [1]: 76%
ED50 [1]: 10 mg/kg
LD50 [2]: > 1000 mg/kg
LD50 [3, 4]: 560 mg/kg

CC(=O)c1cc(C(=O)Nc2nnn[nH]2)c(O)c(C(C)=O)c1O [AW, 3,5-diacetyl-2,4-dihydroxy-N-(tetrazol-5-yl)benzamide]
ED100 [1]: 5 mg/kg
inhibition in vivo at 100 mg/kg [1]: 84%
LD50 [2]: > 1000 mg/kg
LD50 [3, 4]: 710 mg/kg

CC(C)(C)c1ccc(C(=O)Nc2nnn[nH]2)c(O)c1 [BA, 4-tert-butyl-2-hydroxy-N-(tetrazol-5-yl)benzamide]
ED100 [1]: 10 mg/kg
inhibition in vivo at 100 mg/kg [1]: 37%
LD50 [2]: > 1000 mg/kg
LD50 [3, 4]: 230 mg/kg

CC(=O)Nc1ccc(C(=O)Nc2nnn[nH]2)c(O)c1 [BB, 4-acetylamino-2-hydroxy-N-(tetrazol-5-yl)benzamide]
ED100 [1]: 1 mg/kg
inhibition in vivo at 100 mg/kg [1]: 26%
LD50 [2]: > 1000 mg/kg
LD50 [3, 4]: 645 mg/kg

O=C(Nc1nnn[nH]1)c1cc(-c2ccccc2)ccc1O [BG, 2-hydroxy-5-phenyl-N-(tetrazol-5-yl)benzamide]
ED100 [1]: 10 mg/kg
LD50 [2]: > 1000 mg/kg
LD50 ([3]; triethanolamine salt (T), 1% w/v test solution): 200 mg/kg

CCc1cc(C(C)=O)c(O)c(C(=O)Nc2nnn[nH]2)c1 [BW, 3-acetyl-5-ethyl-2-hydroxy-N-(tetrazol-5-yl)benzamide]
ED100 [1]: 0.1 mg/kg
inhibition in vivo at 100 mg/kg [1]: 51%
ED50 [1]: 0.1 mg/kg
LD50 [2]: > 1000 mg/kg
LD50 [3, 5]: 320 mg/kg

CC(=O)c1c(C)c(C)cc(C(=O)Nc2nnn[nH]2)c1O [BX, 3-acetyl-2-hydroxy-4,5-dimethyl-N-(tetrazol-5-yl)benzamide]
ED100 [1]: 20 mg/kg
LD50 [2]: > 1000 mg/kg
LD50 [3, 4]: 870 mg/kg

CC(=O)c1cccc(C(=O)Nc2nnn[nH]2)c1O [CA, 3-acetyl-2-hydroxy-N-(tetrazol-5-yl)benzamide]
ED100 [1]: 0.1 mg/kg
inhibition in vivo at 100 mg/kg [1]: 64%
LD50 [2]: > 1000 mg/kg
LD50 [3, 4]: 500 mg/kg

CCC(=O)c1cc(C)cc(C(=O)Nc2nnn[nH]2)c1O [CE, 2-hydroxy-5-methyl-3-propionyl-N-(tetrazol-5-yl)benzamide]
ED100 [1]: 0.05 mg/kg
inhibition in vivo at 100 mg/kg [1]: 99%
ED50 [1]: 0.4 mg/kg
LD50 [2]: > 1000 mg/kg
LD50 [3, 4]: 270 mg/kg

CCC(=O)c1cc(CC)cc(C(=O)Nc2nnn[nH]2)c1O [CF, 5-ethyl-2-hydroxy-3-propionyl-N-(tetrazol-5-yl)benzamide]
ED100 [1]: 0.05 mg/kg
inhibition in vivo at 100 mg/kg [1]: 41%
ED50 [1]: 0.27 mg/kg
LD50 [2]: > 1000 mg/kg
LD50 [3, 4]: 280 mg/kg

N#Cc1cccc(C(=O)Nc2nnn[nH]2)c1O [CJ, 3-cyano-2-hydroxy-N-(tetrazol-5-yl)benzamide]
ED100 [1]: 0.5 mg/kg
inhibition in vivo at 100 mg/kg [1]: 50%
ED50 [1]: 37 mg/kg
LD50 [2]: > 1000 mg/kg
LD50 [3, 4]: > 1000 mg/kg

CC(=O)c1cc(C(=O)Nc2nnn[nH]2)c(O)c([N+](=O)[O-])c1 [CQ, 5-acetyl-2-hydroxy-3-nitro-N-(tetrazol-5-yl)benzamide]
ED100 [1]: 0.2 mg/kg
inhibition in vivo at 100 mg/kg [1]: 56%
LD50 [2]: > 1000 mg/kg
LD50 [3, 4]: 890 mg/kg

Cc1cc(C(=O)Nc2nnn[nH]2)c(O)c(C(=O)c2ccccc2)c1 [CR, 3-benzoyl-2-hydroxy-5-methyl-N-(tetrazol-5-yl)benzamide]
ED100 [1]: 1 mg/kg
inhibition in vivo at 100 mg/kg [1]: 22%
LD50 [2]: > 1000 mg/kg
LD50 [3, 4]: 350 mg/kg

O=C(Nc1nnn[nH]1)c1cc(Cl)ccc1O [Compound AD, 5-chloro-2-hydroxy-N-(tetrazol-5-yl)benzamide]
ED100 [1]: 1 mg/kg
inhibition in vivo at 100 mg/kg [1]: 94%
ED50 [1]: 13 mg/kg
LD50 [2]: > 1000 mg/kg
LD50 [3, 5]: 480 mg/kg

O=C(Nc1nnn[nH]1)c1cc([N+](=O)[O-])cc([N+](=O)[O-])c1O [Compound AE, 2-hydroxy-3,5-dinitro-N-(tetrazol-5-yl)benzamide]
ED100 [1]: 0.05 mg/kg
inhibition in vivo at 100 mg/kg [1]: 80%
ED50 [1]: 0.1 to 0.45 mg/kg
LD50 [2]: > 1000 mg/kg
LD50 [3, 4]: 490 mg/kg

O=C(Nc1nnn[nH]1)c1cccc(Br)c1O [Compound AL, 3-bromo-2-hydroxy-N-(tetrazol-5-yl)benzamide]
ED100 [1]: 10 mg/kg
inhibition in vivo at 100 mg/kg [1]: 69%
ED50 [1]: 55 mg/kg
LD50 [2]: 794 mg/kg
LD50 [3, 4]: 540 mg/kg

CCCOc1cccc(C(=O)Nc2nnn[nH]2)c1O [Compound AN, 2-hydroxy-3-propoxy-N-(tetrazol-5-yl)benzamide]
ED100 [1]: 0.5 mg/kg
inhibition in vivo at 100 mg/kg [1]: 87%
ED50 [1]: 40 mg/kg
LD50 [2]: > 1000 mg/kg
LD50 [3, 4]: 480 mg/kg

CC(=O)c1cc(Cl)cc(C(=O)Nc2nnn[nH]2)c1O [Compound AU, 3-acetyl-5-chloro-2-hydroxy-N-(tetrazol-5-yl)benzamide]
ED100 [1]: 2 mg/kg
inhibition in vivo at 100 mg/kg [1]: 71%
ED50 [1]: 1.8 mg/kg
LD50 [2]: > 1000 mg/kg
LD50 [3, 4]: 245 mg/kg

CC(=O)c1ccc(O)c(C(=O)Nc2nnn[nH]2)c1 [Compound AV, 5-acetyl-2-hydroxy-N-(tetrazol-5-yl)benzamide]
ED100 [1]: 10 mg/kg
inhibition in vivo at 100 mg/kg [1]: 16%
LD50 [2]: > 1000 mg/kg
LD50 [3, 4]: 645 mg/kg

COc1cccc(C(=O)Nc2nnn[nH]2)c1O [Compound BE, 2-hydroxy-3-methoxy-N-(tetrazol-5-yl)benzamide]
ED100 [1]: 0.2 mg/kg
inhibition in vivo at 100 mg/kg [1]: 62%
ED50 [1]: 18 mg/kg
LD50 [2]: > 1000 mg/kg
LD50 [3, 4]: 580 mg/kg

O=C(Nc1nnn[nH]1)c1cc(F)ccc1O [Compound BH, 5-fluoro-2-hydroxy-N-(tetrazol-5-yl)benzamide]
ED100 [1]: 1 mg/kg
inhibition in vivo at 100 mg/kg [1]: 94%
ED50 [1]: 16 mg/kg
LD50 [2]: > 1000 mg/kg
LD50 ([3]; triethanolamine salt (T), 1% w/v solution for lower doses, 2% w/v for higher doses): 500 mg/kg

CCC(C)c1cc(C(C)=O)c(O)c(C(=O)Nc2nnn[nH]2)c1 (stereo not shown) [Compound BY, 3-acetyl-5-sec-butyl-2-hydroxy-N-(tetrazol-5-yl)benzamide]
ED100 [1]: 0.5 mg/kg
inhibition in vivo at 100 mg/kg [1]: 43%
ED50 [1]: 1.8 mg/kg
LD50 [2]: > 1000 mg/kg
LD50 [3, 4]: 180 mg/kg

CC(=O)c1cc(C(C)(C)C)cc(C(=O)Nc2nnn[nH]2)c1O [Compound BZ, 3-acetyl-5-tert-butyl-2-hydroxy-N-(tetrazol-5-yl)benzamide]
ED100 [1]: 0.5 mg/kg
inhibition in vivo at 100 mg/kg [1]: 59%
ED50 [1]: 2.6 mg/kg
LD50 [2]: > 1000 mg/kg
LD50 [3, 4]: 240 mg/kg
